Reference: patent publication US20260262643A1, “HERBICIDAL BENZOXAZINES” (FMC CORPORATION, priority 2022, published 2026)

Columns and labels:
barnyardgrass [1] = test: Test C preemergence; assay type: in vivo, Echinochloa crusgalli; conditions: for Barnyardgrass plant response rating: preemergence; for Plant response rating, Barnyardgrass: Preemergence
Procedure, shortened: (§1)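 Visual injury score, 0–100 (100 = complete control), taken 10 days after treatment relative to untreated controls. Pre: directed spray onto soil over sown seeds. Post: foliar spray at one- to two-leaf stage, 2–10 cm. Solvent/surfactant formulation; loam–sand soil; greenhouse.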

horseweed = test: Test C postemergence; assay type: in vivo, Erigeron canadensis; conditions: 10 days
Procedure, shortened: as §1

ragweed [2] = test: Test C postemergence; assay type: in vivo, Ambrosia artemisiifolia; conditions: 10 days
Procedure, shortened: as §1

blackgrass [3] = test: Test C postemergence; assay type: in vivo, Alopecurus myosuroides; conditions: 10 days
Procedure, shortened: as §1

ragweed [4] = test: Test C preemergence; assay type: in vivo, Ambrosia artemisiifolia; conditions: for Ragweed plant response rating: preemergence; for Plant response rating, Ragweed: Preemergence
Procedure, shortened: as §1

rice = test: Test D flooded paddy test; assay type: in vivo, Oryza sativa; conditions: 250 g ai/ha, applied to paddy water, visual rating after 13 to 14 days, scale 0 to 100 (0 no effect, 100 complete control)
Procedure, shortened: (§2)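 Plants grown to the 2-leaf stage; pots flooded to 3 cm above soil at treatment and held at that depth throughout. Test compounds applied directly to the paddy water. After 13 to 14 days in a greenhouse, response was rated visually versus controls on a 0 (no effect) to 100 (complete control) scale.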

corn [5] = test: Test C postemergence; assay type: in vivo, Zea mays; conditions: 10 days
Procedure, shortened: as §1

wheat [6] = test: Test C postemergence; assay type: in vivo, Triticum aestivum; conditions: 10 days
Procedure, shortened: as §1

sedge, umbrella = test: Test D flooded paddy test; assay type: in vivo, Cyperus difformis; conditions: 250 g ai/ha, applied to paddy water, visual rating after 13 to 14 days, scale 0 to 100 (0 no effect, 100 complete control)
Procedure, shortened: as §2

blackgrass [7] = test: Test C preemergence; assay type: in vivo, Alopecurus myosuroides; conditions: for Blackgrass plant response rating: preemergence; for Plant response rating, Blackgrass: Preemergence
Procedure, shortened: as §1

ducksalad = test: Test D flooded paddy test; assay type: in vivo, Heteranthera limosa; conditions: 250 g ai/ha, applied to paddy water, visual rating after 13 to 14 days, scale 0 to 100 (0 no effect, 100 complete control)
Procedure, shortened: as §2

corn [8] = test: Test C preemergence; assay type: in vivo, Zea mays; conditions: for Corn plant response rating: preemergence; for Plant response rating, Corn: Preemergence
Procedure, shortened: as §1

kochia [9] = test: Test C postemergence; assay type: in vivo, Bassia scoparia; conditions: 10 days
Procedure, shortened: as §1

oat, wild [10] = test: Test C preemergence; assay type: in vivo, Avena fatua; conditions: for Oat, Wild plant response rating: preemergence; for Plant response rating, Oat, Wild: Preemergence
Procedure, shortened: as §1

soybean [11] = test: Test C preemergence; assay type: in vivo, Glycine max; conditions: for Soybean plant response rating: preemergence; for Plant response rating, Soybean: Preemergence
Procedure, shortened: as §1

pigweed, palmer [12] = test: Test C postemergence; assay type: in vivo, Amaranthus palmeri; conditions: 10 days
Procedure, shortened: as §1

green foxtail [13] = test: Test C preemergence; assay type: in vivo, Setaria viridis; conditions: for Foxtail, Green plant response rating: preemergence; for Plant response rating, Foxtail, Green: Preemergence
Procedure, shortened: as §1

barnyardgrass [14] = test: Test C postemergence; assay type: in vivo, Echinochloa crusgalli; conditions: 10 days
Procedure, shortened: as §1

soybean [15] = test: Test C postemergence; assay type: in vivo, Glycine max; conditions: 10 days
Procedure, shortened: as §1

galium = test: Test C postemergence; assay type: in vivo, Galium aparine; conditions: 10 days
Procedure, shortened: as §1

barnyardgrass [16] = test: Test D flooded paddy test; assay type: in vivo, Echinochloa crus-galli; conditions: 250 g ai/ha, applied to paddy water, visual rating after 13 to 14 days, scale 0 to 100 (0 no effect, 100 complete control)
Procedure, shortened: as §2

pigweed, palmer [17] = test: Test C preemergence; assay type: in vivo, Amaranthus palmeri; conditions: for Pigweed, Palmer plant response rating: preemergence; for Plant response rating, Pigweed, Palmer: Preemergence
Procedure, shortened: as §1

ryegrass, Italian [18] = test: Test C preemergence; assay type: in vivo, Lolium multiflorum; conditions: for Ryegrass, Italian plant response rating: preemergence; for Plant response rating, Ryegrass, Italian: Preemergence
Procedure, shortened: as §1

wheat [19] = test: Test C preemergence; assay type: in vivo, Triticum aestivum; conditions: for Wheat plant response rating: preemergence; for Plant response rating, Wheat: Preemergence
Procedure, shortened: as §1

ryegrass, Italian [20] = test: Test C postemergence; assay type: in vivo, Lolium multiflorum; conditions: 10 days
Procedure, shortened: as §1

oat, wild [21] = test: Test C postemergence; assay type: in vivo, Avena fatua; conditions: 10 days
Procedure, shortened: as §1

green foxtail [22] = test: Test C postemergence; assay type: in vivo, Setaria viridis; conditions: 10 days
Procedure, shortened: as §1

kochia [23] = test: Test C preemergence; assay type: in vivo, Bassia scoparia; conditions: for Kochia plant response rating: preemergence; for Plant response rating, Kochia: Preemergence
Procedure, shortened: as §1

[24] = 500 g ai/ha, 0 to 100 scale (0 no effect, 100 complete control)
[25] = 125 g ai/ha, 0 to 100 scale, 0 no effect, 100 complete control
[26] = 500 g ai/ha, postemergence, 0 to 100 scale (0 no effect, 100 complete control)
[27] = Postemergence, 125 g ai/ha, 0 to 100 scale (0 no effect, 100 complete control)
[28] = 500 g ai/ha, visual rating after 10 days, 0 to 100 scale (0 no effect, 100 complete control)
[29] = Test C, 125 g ai/ha, 0 to 100 scale (0 no effect, 100 complete control)
[30] = 125 g ai/ha, postemergence, 0 to 100 scale, 0 no effect, 100 complete control
[31] = Postemergence, 500 g ai/ha, visual 0 to 100 scale (0 no effect, 100 complete control)

CCOCC1CN(C(=O)c2cc(-n3cnc(CC)n3)ccc2OC)c2cccc(Cl)c2O1 (centres unmarked) [Compound 378]
100: Barnyardgrass plant response rating (barnyardgrass [1]; [24]) | Plant response rating, Kochia (kochia [9]; [26]) | Plant response rating, Pigweed, Palmer (pigweed, palmer [12]; [26]) | Foxtail, Green plant response rating (green foxtail [13]; [24]) | Plant response rating, Soybean (soybean [15]; [26]) | Plant response rating, Soybean (soybean [15]; [27]) | Plant response rating, Galium (galium; [26]) | Pigweed, Palmer plant response rating (pigweed, palmer [17]; [24]) | Plant response rating, Pigweed, Palmer (pigweed, palmer [17]; [25]) | Kochia plant response rating (kochia [23]; [24]) | Plant response rating, Kochia (kochia [23]; [25])
80: Plant response rating, Barnyardgrass (barnyardgrass [1]; [25]) | Ragweed plant response rating (ragweed [4]; [24]) | Plant response rating, Corn (corn [5]; [26]) | Plant response rating, Barnyardgrass (barnyardgrass [14]; [26])
0: Plant response rating, Rice (Flood) (rice) | Plant response rating, Sedge, Umbrella (Flood) (sedge, umbrella) | Plant response rating, Ducksalad (Flood) (ducksalad) | Plant response rating, Corn (corn [8]; [25]) | Plant response rating, Barnyardgrass (Flood) (barnyardgrass [16]) | Plant response rating, Oat, Wild (oat, wild [21]; [27])
20: Plant response rating, Corn (corn [5]; [27]) | Plant response rating, Oat, Wild (oat, wild [10]; [25]) | Plant response rating, Ryegrass, Italian (ryegrass, Italian [20]; [27])
40: Plant response rating, Wheat (wheat [6]; [26]) | Plant response rating, Barnyardgrass (barnyardgrass [14]; [27])
90: Plant response rating, Ragweed (ragweed [2]; [26]) | Plant response rating, Kochia (kochia [9]; [27]) | Soybean plant response rating (soybean [11]; [24]) | Plant response rating, Pigweed, Palmer (pigweed, palmer [12]; [27]) | Plant response rating, Foxtail, Green (green foxtail [13]; [25]) | Plant response rating, Galium (galium; [27]) | Ryegrass, Italian plant response rating (ryegrass, Italian [18]; [24]) | Plant response rating, Foxtail, Green (green foxtail [22]; [26])
10: Plant response rating, Horseweed (horseweed; [27]) | Plant response rating, Blackgrass (blackgrass [7]; [25]) | Plant response rating, Wheat (wheat [19]; [25])
30: Plant response rating, Blackgrass (blackgrass [3]; [27]) | Plant response rating, Wheat (wheat [6]; [27]) | Wheat plant response rating (wheat [19]; [24]) | Plant response rating, Oat, Wild (oat, wild [21]; [26])
50: Plant response rating, Blackgrass (blackgrass [3]; [26]) | Blackgrass plant response rating (blackgrass [7]; [24]) | Corn plant response rating (corn [8]; [24])
70: Plant response rating, Horseweed (horseweed; [26]) | Plant response rating, Ragweed (ragweed [2]; [27]) | Plant response rating, Foxtail, Green (green foxtail [22]; [27])
60: Plant response rating, Ragweed (ragweed [4]; [25]) | Oat, Wild plant response rating (oat, wild [10]; [24]) | Plant response rating, Soybean (soybean [11]; [25]) | Plant response rating, Ryegrass, Italian (ryegrass, Italian [18]; [25]) | Plant response rating, Ryegrass, Italian (ryegrass, Italian [20]; [26])

Cc1cccc2c1O[C@@H](C)CN2C(=O)c1cc(-n2cnc(C(C)C)n2)cc2ccoc12 [Compound 227]
80: Barnyardgrass plant response rating (barnyardgrass [1]; [29]) | Plant response rating, Blackgrass (blackgrass [3]; [31]) | Plant response rating, Corn (corn [5]; [31]) | Blackgrass plant response rating (blackgrass [7]; [29]) | Plant response rating, Ducksalad (Flood) (ducksalad) | Plant response rating, Foxtail, Green (green foxtail [22]; [30])
98: Plant response rating, Sedge, Umbrella (Flood) (sedge, umbrella)
50: Plant response rating, Ragweed (ragweed [2]; [31]) | Plant response rating, Blackgrass (blackgrass [3]; [30]) | Plant response rating, Ragweed (ragweed [4]; [28]) | Corn plant response rating (corn [8]; [29]) | Plant response rating, Barnyardgrass (Flood) (barnyardgrass [16])
40: Plant response rating, Horseweed (horseweed; [31]) | Plant response rating, Barnyardgrass (barnyardgrass [14]; [30])
60: Plant response rating, Wheat (wheat [6]; [31]) | Plant response rating, Corn (corn [8]; [28]) | Plant response rating, Oat, Wild (oat, wild [21]; [31])
20: Plant response rating, Horseweed (horseweed; [30]) | Plant response rating, Corn (corn [5]; [30]) | Plant response rating, Wheat (wheat [6]; [30])
0: Ragweed plant response rating (ragweed [4]; [29]) | Wheat plant response rating (wheat [19]; [29])
10: Plant response rating, Ragweed (ragweed [2]; [30]) | Plant response rating, Rice (Flood) (rice)
30: Plant response rating, Wheat (wheat [19]; [28]) | Plant response rating, Oat, Wild (oat, wild [21]; [30])
90: Plant response rating, Barnyardgrass (barnyardgrass [1]; [28]) | Plant response rating, Blackgrass (blackgrass [7]; [28]) | Plant response rating, Kochia (kochia [9]; [30]) | Plant response rating, Oat, Wild (oat, wild [10]; [28]) | Oat, Wild plant response rating (oat, wild [10]; [29]) | Plant response rating, Soybean (soybean [11]; [28]) | Pigweed, Palmer plant response rating (pigweed, palmer [17]; [29]) | Plant response rating, Ryegrass, Italian (ryegrass, Italian [18]; [28]) | Ryegrass, Italian plant response rating (ryegrass, Italian [18]; [29]) | Plant response rating, Ryegrass, Italian (ryegrass, Italian [20]; [30]) | Plant response rating, Foxtail, Green (green foxtail [22]; [31]) | Kochia plant response rating (kochia [23]; [29])
100: Plant response rating, Kochia (kochia [9]; [31]) | Plant response rating, Pigweed, Palmer (pigweed, palmer [12]; [30]) | Plant response rating, Pigweed, Palmer (pigweed, palmer [12]; [31]) | Plant response rating, Foxtail, Green (green foxtail [13]; [28]) | Foxtail, Green plant response rating (green foxtail [13]; [29]) | Plant response rating, Soybean (soybean [15]; [30]) | Plant response rating, Soybean (soybean [15]; [31]) | Plant response rating, Galium (galium; [30]) | Plant response rating, Galium (galium; [31]) | Plant response rating, Pigweed, Palmer (pigweed, palmer [17]; [28]) | Plant response rating, Ryegrass, Italian (ryegrass, Italian [20]; [31]) | Plant response rating, Kochia (kochia [23]; [28])
70: Soybean plant response rating (soybean [11]; [29]) | Plant response rating, Barnyardgrass (barnyardgrass [14]; [31])
